How the values were obtained:
[1] = Degradation of PTP assemblies in aqueous solution (HPLC); assay type: physicochemical; conditions: 37 °C
Protocol: PTP, PTP@PEG, and PTP@HA (200 μL, 0.1 mg·mL^–1) solutions were sealed in ampules and incubated at 37 °C with agitation at 100 rpm. Samples were collected in triplicate at scheduled intervals, treated with acetonitrile, vortexed for 1 min, and analyzed using HPLC. Degradation rate constants (k) were calculated by plotting the natural logarithm of the concentration ratio (ln c/c0) versus time, with the slopes of the linear regression plots representing the rate constants.

[2] = Appearance on dissolving/dispersing in water or excipient solution; assay type: physicochemical; conditions: 5.0 mg·mL^–1 drug; with 260.0 mg·mL^–1 PEG400 or 20.0 mg·mL^–1 HA where named
Protocol: PTP self-assemblies were prepared by adding 5.0 mg of PTP to 1.0 mL of a water, followed by vortexing for 1 min. For PTP@PEG coassemblies, 260.0 mg of PEG400 was mixed with 1.0 mL of the chosen water-based solution. This PEG400 solution was then added to 5.0 mg of PTP powder, and the resulting mixture was vortexed for 1 min. PTP@HA coassemblies were prepared by first dispersing 20.0 mg of HA in 1.0 mL of the selected water-based solution. Following this step, the resulting HA solution was added to 5.0 mg of PTP powder. The final mixture was vortexed for 1 min. To prepare the PTX@PEG control system, 1.3 g of PEG400 was mixed with 5.0 mL of water. Then, 25.0 mg of PTX was added to the solution, and the mixture was vortexed for 1 min. Similarly, the PTX@HA control system was prepared by dispersing 100.0 mg of HA in 5.0 mL of water. Subsequently, 25.0 mg of PTX was added, and the mixture was vortexed for 1 min.

[3] = system: human colon HCT116-Luc cells; experiment: CCK8 antiproliferation assay, HCT116-Luc; assay type: cell-based; conditions: 48 h treatment
Protocol: (§1) The mouse breast cancer cell line 4T1 and the human ovarian cancer cell line SKOV3 were cultured in RPMI 1640 medium supplemented with 10% fetal bovine serum, 100 units·mL^–1 penicillin, and 100 μg·mL^–1 streptomycin. The human lung cancer cell line A549 and the luciferase-expressing human colorectal carcinoma cell line HCT116-Luc were cultured in high-glucose DMEM medium supplemented with 10% fetal bovine serum, 100 units·mL^–1 penicillin, and 100 μg·mL^–1 streptomycin. All cell lines were maintained at 37 °C in a Steri-Cycle 371 incubator (Thermo Scientific, USA) with a humidified atmosphere of 5% CO2. Only cells between passages 5 and 15 were used for cell-based experiments.
(§2) The antiproliferative activity of PTP was evaluated using the Cell Counting Kit-8 (CCK8) assay. PTX solution served as a positive control. Cell suspensions were prepared at a density of 3 × 10^4 cells·mL^–1 and seeded in 96-well plates at a volume of 100 μL per well. The plates were incubated for 24 h to allow cell attachment and growth. Subsequently, the culture media were replaced with fresh media containing varying concentrations of PTX or PTP solutions (100 μL per well), and the cells were incubated for an additional 48 h (n = 3). Control wells received fresh culture media alone (n = 3). […] Finally, the absorbance was measured at 450 nm using a microplate reader (Synergy H1, BioTek, USA). […]

Balb/c mice = experiment: Maximum tolerated dose / survival in mice; assay type: in vivo, mouse; conditions: iv, PTP 100 mg·kg^–1, 14 days
[4] = Surface tension measurement / critical aggregation concentration; assay type: physicochemical
Protocol: Surface tension measurements were conducted at 25 °C using a drop shape analyzer (DSA30S; Kruss, Germany). Starting with a 5.0 mg·mL^–1 PTP dispersion, serial dilutions were prepared to obtain a range of lower concentrations. Following overnight assembly, the PTP dispersion was drawn into a syringe (HENKE-JECT, Germany), and a droplet was suspended from the needle tip. The outer diameter of the needle (1.825 mm) served as the reference for image analysis. Images of the droplet were captured, and the surface tension was calculated using the Young–Laplace equation based on the droplet’s shape.

[5] = system: human ovarian SKOV3 cells; experiment: CCK8 antiproliferation assay, SKOV3; assay type: cell-based; conditions: SK-OV-3, SKOV3, 48 h treatment
Protocol: as §1, §2

[6] = Solid-state storage stability of PTP; assay type: physicochemical; conditions: stored at −20 °C for 6 months; initial purity 98.5%
Protocol: For solid-state stability, 5.0 mg PTP was sealed in glass bottles and stored under controlled conditions in stability chambers (MMM Climacell-E, Germany). The samples were stored at 40 ± 2 °C and 75 ± 5% relative humidity, and 25 ± 2 °C and 60 ± 5% RH. Additional samples were stored at 4 °C and −20 °C in a refrigerator (BCD-610W, Siemens, Germany). At scheduled intervals, triplicate samples from each condition were analyzed for purity by HPLC.

[7] = Serum biochemistry safety assessment; assay type: in vivo, Balb/c mice; conditions: mice, iv 10 mg·kg^–1 PTX equivalent, q.o.d. × 5, day 10; PTP versus PTP@PEG
Protocol: In a related safety assessment, female Balb/c mice (18–22 g, n = 3) were fasted for 12 h, then treated intravenously with either 5% G, PTX solution, PTP, or PTP@PEG using the previously described dosing regimen (10 mg·kg^–1 PTX equivalent, q.o.d. × 5). On day 10, blood was collected and then processed to obtain serum by centrifugation (2000 rpm, 10 min, 4 °C). Serum samples were subsequently analyzed for biochemical markers using a Chemray 240 automated analyzer (Rayto Life and Analytical Sciences Co., Ltd., China).

mouse breast 4T1 cells = experiment: CCK8 antiproliferation assay, 4T1; assay type: cell-based; conditions: 4T1, 48 h treatment
Protocol: as §1, §2

Stability in rat plasma = assay type: in vitro ADME
Protocol: For plasma stability studies, a PTP or PTP@PEG dispersion (1.2 mg·mL^–1, PTP-equivalent) was diluted with plasma to a final concentration of 100.0 μg·mL^–1. Plasma was obtained from male rat blood by centrifugation (1600 × g, 15 min). Aliquots (100 μL each) were incubated at 37 °C with agitation at 100 rpm, and samples were collected at designated time points in triplicate. Proteins were precipitated by adding 200 μL acetonitrile, followed by vortex mixing and centrifugation at 17 000 rpm and 4 °C for 30 min. The resulting supernatants were analyzed by HPLC.

human lung A549 cells = experiment: CCK8 antiproliferation assay, A549; assay type: cell-based; conditions: A549, 48 h treatment
Protocol: as §1, §2

Compound: CC(=O)O[C@H]1C(=O)[C@@]2(C)[C@H]([C@H](OC(=O)c3ccccc3)[C@]3(O)C[C@H](OC(=O)[C@H](OC(=O)CCP(=O)(O)O)[C@@H](NC(=O)c4ccccc4)c4ccccc4)C(C)=C1C3(C)C)[C@]1(OC(C)=O)CO[C@@H]1C[C@@H]2O [PTP, PTX-2’–OOC-P]
- degradation rate constant (k) ([1]; 0.1 mg·mL^–1 in 5% glucose (5% G)): 2.3 × 10^–2 day^–1
- degradation rate constant (k) ([1]; 0.1 mg·mL^–1 in phosphate buffer saline (PBS)): 1.3 day^–1
- degradation rate constant (k) ([1]; 0.1 mg·mL^–1 in saline): 3.2 × 10^–2 day^–1
- degradation rate constant (k) ([1]; 0.1 mg·mL^–1 in water): 8.0 × 10^–2 day^–1
- appearance of the system [2]: transparent solution
- IC50 [3]: 12.5 nM
- fatalities (Balb/c mice): No fatalities
- water–air surface tension (plateau) ([4]; above 1.0 mg·mL^–1): approximately 55.0 mN·m^–1
- critical aggregation concentration ([4]; water, 25 °C, inflection of surface tension versus log concentration): 0.6 mg·mL^–1
- IC50 [5]: 31.2 nM
- purity after storage [6]: 98.1%
- blood urea nitrogen (BUN) and creatinine (CREA) levels [7]: comparable
- IC50 (mouse breast 4T1 cells): 82.4 nM
- degradation faster than PTP@PEG (Stability in rat plasma; rat plasma, 37 °C): 1.2 fold
- degradation rate constant (k) in plasma (Stability in rat plasma; rat plasma, 37 °C, 100 μg·mL^–1 PTP-equivalent): 0.23 h^–1
- parent compound left (Stability in rat plasma; rat plasma, 37 °C, after 10 h): 10.4%
- degraded in plasma (Stability in rat plasma; within 10 h, 100.0 μg·mL^–1): approximately 90%
- IC50 (human lung A549 cells): 13.2 nM

From PMC12424289, “Programmable Nanostructure Assembly of a Paclitaxel Derivative Enables Tunable Anticancer Therapy via Hydrogen Bond Engineering” (ACS Nano, 2025)
